In PMC11304739, “Identification of novel bromodomain inhibitors of Trypanosoma cruzi bromodomain factor 2 (TcBDF2) using a fluorescence polarization-based high-throughput assay” (Antimicrobial Agents and Chemotherapy, 2024):
Like-named read-outs stand apart in the source and are kept apart here. Blank lines part the entries; values can stand above or below the compound they belong to.

Experiments:
LdBD5.1 = target: LdBD5.1; set-up: method as in PMID 37906637; conditions: cited from earlier work
[1] = system: promastigotes from Leishmania mexicana; set-up: method as in PMID 37906637; conditions: cited from earlier work
[2] = system: promastigotes from L. donovani; set-up: method as in PMID 37906637; conditions: cited from earlier work
[3] = system: asexual form of Plasmodium falciparum; set-up: method as in PMID 29631126; conditions: cited from earlier work
LdBDF5 = system: LdBDF5; set-up: method as in PMID 37906637; conditions: different affinities for first or second BD; cited from earlier work
recombinant TcBD2 = recombinant TcBD2 (Trypanosoma cruzi, UniProt A0A2V2V5V1); assay: Thermal shift / differential scanning fluorimetry (DSF); assay type: binding
Experimental: Recombinant TcBD2 was buffered in 10 mM HEPES, pH 7.5, and 300 mM NaCl and assayed in a 96-well plate at a final concentration of 5 µM in a 25-µL volume. Compounds were added at a final concentration between 0.1 and 50 µM to calculate dissociation constants. SYPRO Orange was added as a fluorescence probe at a dilution of 1:10,000. Excitation and emission filters for the SYPRO Orange dye were set to 465 and 590 nm, respectively. The temperature was raised with a step of 2°C per minute from 25°C to 96°C, and fluorescence readings were taken at each interval in a real-time Bio-Rad Opus CFX. Data were analyzed as previously described ([22]).
Fig 3 Kd calculation using DSF. Six concentrations of each compound (compounds named 1 to 7 indicated on top of each graph) were used (from 0.1 to 50 µM), and the melting temperatures of TcBD2 with each concentration of compound obtained were used to calculate the Kds. DMSO was used as a control sample. All thermal shift assays were performed at least in triplicate with reproducibility of parameters within ±10%. The change of melting temperature versus the log of the ligand concentration was plotted and fitted as described in the Materials and Methods section.

[4] = system: T. cruzi Dm28c epimastigotes expressing beta-galactosidase; assay: Beta-galactosidase expressing parasite assay (epimastigotes); assay type: cell-based; conditions: Trypanosoma cruzi, 72 h
Experimental: T. cruzi Dm28c which expresses the Escherichia coli LacZ gene was used ([31][–][33]). Epimastigotes were incubated with the compounds (50, 25, 12.5, 6.25, and 3.125 µM). After 72 hours of treatment, the assays were developed by the addition of Chlorophenol red-β-D-galactopyranoside (100 µM final concentration) and Nonidet P-40 (0.1% final concentration). Plates were incubated for 2 to 4 hours at 37°C. Wells with β-galactosidase activity turned the media from yellow to red, and this was quantitated by absorbance at 595 nm using a Synergy HTX multi-detection microplate reader as reported previously ([31]). Normalized survival percentage was plotted against concentrations on Prism 9.0 GraphPad software. DMSO 50% was used as the 0% survival baseline. Each concentration was assayed in triplicates.
Fig 4 Trypanocidal effect on epimastigotes expressing beta-galactosidase. Epimastigotes were incubated for 72 hours with each compound (named 1 to 6 and indicated on top of each graph) at five concentrations (3.12 to 50 µM). Beta-galactosidase activity was measured, and normalized survival was plotted vs. log concentration. For IC50 calculation of iBET151 and Benznidazole (BZN) (used as positive controls), six concentrations (from 1.56 to 100 µM) were plotted and the curves were fitted using GraphPad Prism 9.0 [non-linear regression: log(inhibitor) vs. response -- Variable slope (four parameters)]. […]

TbBDF2 = target: TbBDF2; set-up: method as in PMID 26646171, PMID 35642518; conditions: cited from earlier work
TbBDF3 [5] = target: TbBDF3; set-up: method as in PMID 26646171, PMID 35642518; conditions: cited from earlier work
Dm28c epimastigotes = conditions: cited from earlier work
TcBDF2 = system: TcBDF2; set-up: method as in PMID 27007774, PMID 35482332; conditions: cited from earlier work
TcBDF3 = system: TcBDF3; set-up: method as in PMID 27007774, PMID 35482332; conditions: cited from earlier work
BD of TbBDF2 = target: BD of TbBDF2; set-up: method as in PMID 29025975; conditions: ITC; cited from earlier work
second BD of TbBDF5 = target: second BD of TbBDF5; set-up: method as in PMID 29025975; conditions: ITC; cited from earlier work
TbBDF3 [6] = system: TbBDF3; set-up: method as in PMID 29025975; conditions: cited from earlier work
first BD from TbBDF5 = system: first BD from TbBDF5; set-up: method as in PMID 29025975; conditions: cited from earlier work
procyclic T. brucei = system: procyclic T. brucei; set-up: method as in PMID 29025975; conditions: growth of procyclic T. brucei; cited from earlier work
[7] = system: Toxoplasma tachyzoites infecting HFF cells; set-up: method as in PMID 32119930; conditions: cited from earlier work
[8] = second round of experiments, six concentrations, read-out: IC50 (Figure S3, Kd calculation using DSF, second round of experiments)
[9] = thermal shift, compounds 0.1 to 50 µM, 5 µM TcBD2, read-out: Kd ± SD
[10] = read-out: IC50 against Dm28c epimastigotes

recombinant TcBD2, sequence (A0A2V2V5V1 entry or part of it): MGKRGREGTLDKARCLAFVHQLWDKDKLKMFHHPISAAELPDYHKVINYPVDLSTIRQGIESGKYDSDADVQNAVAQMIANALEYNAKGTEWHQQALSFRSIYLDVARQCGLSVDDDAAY

Structure (SMILES): COc1ccc(CCc2nc3cc(-c4c(C)noc4C)ccc3n2C[C@H](C)N2CCOCC2)cc1Cl [SGC-CBP30]
- Kd (LdBD5.1): 281 nM
- IC50 [1]: 7.16 µM
- IC50 [2]: 6.16 µM
- selectivity index ([3]; calculated using a human HEK 293 cell line): around 7
- IC50 ([3]; in vitro): 3.2 µM
- binding to LdBDF5 (LdBDF5): binds

- Kd (recombinant TcBD2; [8]): 3150 nM
- Kd (recombinant TcBD2; [9]): 2810 ± 310 nM
Structure (SMILES): CC(=O)Nc1nc(C)c(S(=O)(=O)Nc2cccc3nnc(C)cc23)s1 [Compound 7]

- Kd (recombinant TcBD2; [8]): 2140 nM
- Kd (recombinant TcBD2; [9]): 2410 ± 320 nM
Structure (SMILES): Cc1cc(C(=O)NC2CCc3nccn3C2)c2c(C)noc2n1 (stereo not shown) [Compound 3]

Structure (SMILES): COc1cc2c(cc1-c1c(C)noc1C)ncc1[nH]c(=O)n([C@H](C)c3ccccn3)c12 [iBET-151]
- IC50 [4]: 7.75 µM
- Kd (TbBDF2): 225 µM
- Kd (TbBDF3 [5]): 175 µM
- IC50 (Dm28c epimastigotes; [10]): 6.35 µM
- binding to TcBDF2 (TcBDF2): bind
- binding to TcBDF3 (TcBDF3): bind

- Kd (recombinant TcBD2; [8]): 3360 nM
- Kd (recombinant TcBD2; [9]): 3520 ± 120 nM
Structure (SMILES): Cc1cc2c(NS(=O)(=O)c3c(C)noc3C)cccc2nn1 [Compound 5]

Structure (SMILES): CCCOc1ccn2c(C(C)=O)cc(-c3ccccc3S(C)(=O)=O)c2c1 [GSK2801]
- Kd (BD of TbBDF2): 15 µM
- Kd (second BD of TbBDF5): 83 µM
- binding to TbBDF3 (TbBDF3 [6]): does not bind
- binding to first BD from TbBDF5 (first BD from TbBDF5): does not bind
- IC50 (procyclic T. brucei): 1370 nM

- Kd (recombinant TcBD2; [8]): 1890 nM
- Kd (recombinant TcBD2; [9]): 1910 ± 310 nM
Structure (SMILES): CCn1nnc2c(N3CC[C@@H](N)C3)nc(C)nc21 [Compound 1]

Structure (SMILES): Cc1nnc2c3ccccc3c(N[C@@H](C)[C@H](c3ccccc3)N(C)C)nn12 [L-Moses]
- IC50 [7]: ~600 nM

- Kd (recombinant TcBD2; [8]): 1550 nM
- Kd (recombinant TcBD2; [9]): 1330 ± 220 nM
Structure (SMILES): CCn1nnc2c(N3CC[C@H](N)C3)nc(C)nc21 [Compound 2]

- Kd (recombinant TcBD2; [8]): 3110 nM
- Kd (recombinant TcBD2; [9]): 3310 ± 260 nM
Structure (SMILES): Cc1cc2c(NC(=O)c3ccccc3C(=O)O)cccc2nn1 [Compound 6]

Structure (SMILES): CCn1cc(-c2cccc(C(F)(F)F)c2)c2sc(C(=N)NC3CCS(=O)(=O)CC3)cc2c1=O [I-BRD9]
- binding to LdBDF5 (LdBDF5): binds

Structure (SMILES): CCOC(=O)Nc1cc(-c2ccc(C)c(NS(C)(=O)=O)c2)nn2c(C)nnc12 [BSP, Bromosporine]
- IC50 (Dm28c epimastigotes; read-out: IC50 against parasites): > 50 µM
- binding to TcBDF2 (TcBDF2): bind
- binding to TcBDF3 (TcBDF3): bind
- binding to LdBDF5 (LdBDF5): binds

Structure (SMILES): O=C(Cn1ccnc1[N+](=O)[O-])NCc1ccccc1 [BZN, Benznidazole]
- IC50 [4]: 19.8 µM

Structure (SMILES): Cc1sc2c(c1C)C(c1ccc(Cl)cc1)=N[C@@H](CC(=O)OC(C)(C)C)c1nnc(C)n1-2 [JQ1(+)]
- binding to TbBDF2 (TbBDF2): do not bind at all
- binding to TbBDF3 (TbBDF3 [5]): do not bind at all
- IC50 (Dm28c epimastigotes; [10]): 7.14 µM
- binding to TcBDF2 (TcBDF2): does not interact
- binding to TcBDF3 (TcBDF3): binds

- Kd (recombinant TcBD2; [8]): 1920 nM
- Kd (recombinant TcBD2; [9]): 1580 ± 420 nM
Structure (SMILES): Cc1cc2c(NC(=O)CC(C)(C)CC(=O)O)cccc2nn1 [Compound 4]
